Here are results for 13 compounds from patent US9598418B2, “Substituted phthalazin-1 (2H)-one derivatives as selective inhibitors of poly (ADP-ribose) polymerase-1” (CADILA HEALTHCARE LIMITED, priority 2012, dated 2017).

Counter-ions that a name gives are not always drawn.

The target of the test is T1, PARP-1 (Homo sapiens, UniProt P09874).
T1 construct: purchased Trevigen
Description: PARP-1 inhibitory activity, HT universal colorimetric PARP assay kit (Trevigen). It counts as biochemical. The settings on record: estimation as calculated from a 4 point dose response curve; read-out: PARP-1 activity in vitro IC50. Here is the method: The compounds were tested for PARP-1 inhibitory activity by using HT universal colorimetric PARP assay kit obtained from Trevigen, following manufacturer's protocol.

T1 sequence (P09874 whole entry): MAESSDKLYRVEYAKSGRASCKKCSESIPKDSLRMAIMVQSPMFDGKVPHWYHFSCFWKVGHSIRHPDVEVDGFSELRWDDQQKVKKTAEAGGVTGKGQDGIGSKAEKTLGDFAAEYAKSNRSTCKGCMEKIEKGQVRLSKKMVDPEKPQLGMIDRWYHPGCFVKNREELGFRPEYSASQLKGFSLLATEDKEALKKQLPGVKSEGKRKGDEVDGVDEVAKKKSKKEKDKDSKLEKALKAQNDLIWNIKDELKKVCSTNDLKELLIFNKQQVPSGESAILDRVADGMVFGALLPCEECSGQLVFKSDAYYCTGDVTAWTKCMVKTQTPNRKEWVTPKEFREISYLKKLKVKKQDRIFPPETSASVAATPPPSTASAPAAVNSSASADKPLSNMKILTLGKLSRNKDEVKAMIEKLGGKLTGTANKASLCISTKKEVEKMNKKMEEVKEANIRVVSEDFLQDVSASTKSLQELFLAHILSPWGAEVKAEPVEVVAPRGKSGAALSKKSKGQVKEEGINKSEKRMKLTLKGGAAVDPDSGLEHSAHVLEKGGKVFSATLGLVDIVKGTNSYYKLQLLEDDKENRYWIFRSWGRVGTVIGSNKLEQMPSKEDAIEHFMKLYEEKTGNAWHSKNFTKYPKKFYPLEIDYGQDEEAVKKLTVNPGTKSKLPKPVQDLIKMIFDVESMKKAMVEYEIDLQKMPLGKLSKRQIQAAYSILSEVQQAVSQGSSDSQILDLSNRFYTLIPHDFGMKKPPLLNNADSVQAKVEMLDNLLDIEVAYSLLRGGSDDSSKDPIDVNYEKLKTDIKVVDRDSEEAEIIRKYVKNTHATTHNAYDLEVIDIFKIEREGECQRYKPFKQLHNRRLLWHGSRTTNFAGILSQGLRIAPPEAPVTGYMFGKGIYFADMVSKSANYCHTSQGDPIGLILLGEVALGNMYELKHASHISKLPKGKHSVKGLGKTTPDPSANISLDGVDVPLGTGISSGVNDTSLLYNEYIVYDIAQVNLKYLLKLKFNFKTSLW

Turning to `O=C(c1cc(Cc2n[nH]c(=O)c3ccccc23)ccc1F)N1CC2CN(Cc3ccccc3)CC2C1` (single isomer, unassigned) [Compound 1, 4-(3-(5-benzyloctahydropyrrolo[3,4-c]pyrrole-2-carbonyl)-4-fluorobenzyl)phthalazin-1(2H)-one], the IC50 (usually the concentration that inhibits the measured activity by half) is 11.5 nM.

With `O=C(c1cc(Cc2n[nH]c(=O)c3ccccc23)ccc1F)N1CC2CN(Cc3ccccc3)CC2C1` (single isomer, unassigned) [Compound 9, 4-(3-(5-benzyloctahydropyrrolo[3,4-c]pyrrole-2-carbonyl)-4-fluorobenzyl)phthalazin-1(2H)-one hydrochloride], the IC50 was 24 nM.

As to `O=C(c1cc(Cc2n[nH]c(=O)c3ccccc23)ccc1F)N1CC2C(=O)N(Cc3ccccc3)C(=O)C2C1` (stereo not shown) [Compound 2, 2-benzyl-5-(2-fluoro-5-((4-oxo-3,4-dihydrophthalazin-1-yl)methyl)benzoyl) tetrahydropyrrolo[3,4-c]pyrrole-1,3(2H,3aH)-dione], the IC50 was 8.41 nM.

`O=C(c1cc(Cc2n[nH]c(=O)c3ccccc23)ccc1F)N1Cc2cn[nH]c2C1` [Compound 3, 4-(4-fluoro-3-(1,4,5,6-tetrahydropyrrolo[3,4-c]pyrazole-5-carbonyl)benzyl) phthalazin-1 (2H)-one]: the IC50 is 14.6 nM.

For the compound `O=C(c1cc(Cc2n[nH]c(=O)c3ccccc23)ccc1F)N1CC2CN(CC3CC3)CC2C1` (stereo not shown) [Compound 6, 4-(3-(5-(cyclopropylmethyl)octahydropyrrolo[3,4-c]pyrrole-2-carbonyl)-4-fluorobenzyl)phthalazin-1(2H)-one], the IC50 was 46.7 nM.

On to `O=C(c1cc(Cc2n[nH]c(=O)c3ccccc23)ccc1F)N1CC2CN(CC(F)(F)F)CC2C1` (stereo not shown) [Compound 7, 4-(4-fluoro-3-(5-(2,2,2-trifluoroethyl)octahydropyrrolo[3,4-c]pyrrole-2-carbonyl)benzyl)phthalazin-1 (2H)-one], for which the half-inhibitory concentration (IC50) is 38.6 nM.

Consider `O=C(c1cc(Cc2n[nH]c(=O)c3ccccc23)ccc1F)N1Cc2cnn(C(=O)C3CC3)c2C1` [Compound 12, 4-(3-(1-(cyclopropanecarbonyl)-1,4,5,6-tetrahydropyrrolo[3,4-c]pyrazole-5-carbonyl)-4-fluorobenzyl)phthalazin-1(2H)-one], for which the IC50 was 14.1 nM.

`O=C(c1cc(Cc2n[nH]c(=O)c3ccccc23)ccc1F)N1CC2COCC2C1` (stereo not shown) [Compound 14, 4-(4-fluoro-3-(hexahydro-1H-furo[3,4-c]pyrrole-5-carbonyl)benzyl)phthalazin-1 (2H)-one]: the IC50 is 46.5 nM.

With `O=C(c1cc(Cc2n[nH]c(=O)c3ccccc23)ccc1F)N1CC2CNCC2C1` (stereo not shown) [Compound 15, 4-(4-fluoro-3-(octahydropyrrolo[3,4-c]pyrrole-2-carbonyl)benzyl)phthalazin-1(2H)-one], the IC50 is 11.6 nM.

Take `CS(=O)(=O)N1CC2CN(C(=O)c3cc(Cc4n[nH]c(=O)c5ccccc45)ccc3F)CC2C1` (stereo not shown) [Compound 16, 4-(4-fluoro-3-(5-(methylsulfonyl)octahydropyrrolo[3,4-c]pyrrole-2-carbonyl)benzyl) phthalazin-1 (2H)-one]: the IC50 was 104 nM.

As for `O=C(c1cc(Cc2n[nH]c(=O)c3ccccc23)ccc1F)N1CC2CN(Cc3ccc(F)cc3F)CC2C1` (stereo not shown) [Compound 19, 4-(3-(5-(2,4-difluorobenzyl)octahydropyrrolo[3,4-c]pyrrole-2-carbonyl)-4-fluorobenzyl)phthalazin-1(2H)-one], the IC50 is 34.4 nM.

On to `CN1CC2CN(C(=O)c3cc(Cc4n[nH]c(=O)c5ccccc45)ccc3F)CC2C1` (stereo not shown) [Compound 21, 4-(4-fluoro-3-(5-methyloctahydropyrrolo[3,4-c]pyrrole-2-carbonyl)benzyl)phthalazin-1(2H)-one], for which the IC50 was 22.6 nM.

For the compound `O=C1NC(=O)C2CN(C(=O)c3cc(Cc4n[nH]c(=O)c5ccccc45)ccc3F)CC12` (stereo not shown) [Compound 22, 5-(2-fluoro-5-((4-oxo-3,4-dihydrophthalazin-1-yl)methyl)benzoyl)tetrahydropyrrolo[3,4-c]pyrrole-1,3(2H,3aH)-dione], the IC50 is 20.2 nM.
